US20130273003A1, “Therapies for Treating Hepatitis C Virus Infection” (priority 2012, published 2013)
Where “and” joins values, the source holds several entries; their conditions need not be identical. Identical values can stand only once.

Key:
[1] = test system: genotype 1 HCV; test: Study VX-222-102 Part A: HCV RNA analyses (viral load reduction); format: in vivo, Hepatitis C virus
Method: (§1) In Part A of Study 102 subjects were randomized to VX-222 or placebo in a 6:2 (VX-222: placebo) allocation ratio to either Cohort 1, Cohort 2, Cohort 3, or Cohort 4. Subjects enrolled in Cohort 1, Cohort 2, and Cohort 3 were administered 250 mg, 500 mf, or 750 mg VX-222 or placebo twice daily (b.i.d.) for 3 days, respectively. Subjects enrolled in Cohort 4 were administered 1,500 mg VX-222 or placebo once daily (qd) for 3 days. Standard of care treatment, Peg-IFN-alpha-2a and RBV was offered to the subjects at the end of dosing in Part A for up to 48 weeks, if judged appropriate by the physician.
Additional results of Study VX-222-102 are described in FIGS. 2-8: Thirty-two treatment-naïve patients with chronic genotype 1 HCV infection were enrolled in the trial, including six patients in each dose group who received 250 mg of VX-222 BID, 500 mg of VX-222 BID, 750 mg of VX-222 BID, and 1,500 mg of VX-222 QD. Two patients received placebo in each of the four dosing groups, for a total of eight patients who received placebo. Part A of the trial was conducted at 10 centers in the United States, Canada and Argentina. Of the patients enrolled in the trial, 24 patients had genotype 1a HCV infection and eight patients had genotype 1b HCV infection. Six of the patients enrolled in the trial were African American, 25 were Caucasian.
(§2) Study Design a& Population Multicenter, randomized, double-blinded, placebo-controlled, dose-ranging study HCV genotype 1-infected patients With no evidence of cirrhosis ALT values<5×ULM Plasma HCV RNA of ≧5 log10 IU/mL at screening 4-arm comparative study (6:2 randomization VX-222: placebo) Enrollment in this dosing—ranging study was sequential 250 mg BID for 3 days 500 mg BID for 3 days 750 mg BID for 3 days 1500 mg QD for 3 days.

[2] = Study VX-222-102 Part A: PK and safety of VX-222 in HCV infected subjects, 3 days; format: in vivo, human
Method: as §1
Subjects with genotype 1 chronic hepatitis C infection were exposed to multiple doses of VX-222 or placebo at 250 mg (Cohort 1), 500 mg (Cohort 2), or 750 mg (Cohort 3) b.i.d. for 3 days. […] The majority of the reported adverse events were mild in severity and there were no untoward adverse incidences or trends.
as §2

[3] = test system: genotype 1 chronic HCV; test: ZENITH Phase 2a study: VX-222 in combination with telaprevir (DUAL, QUAD)
[4] = Study VX-222-002: combination treatment with VX-222 and VX-950 in healthy subjects (PK, safety); settings: Treatment Period 3: VX-222 and VX-950 simultaneously for 10 days, preliminary
[5] = test system: Huh-7, ET replicon cells (HCV replicon I389luc-ubi-neo/NS3-3'/5.1); test: Drug combination luciferase assay (4-day, MacSynergy analysis); format: cell-based, Hepatitis C virus; settings: combination with VX-950, 4 days
From the text: Replicon cell lines Huh-7, ET cells derived from the Huh-7 hepatocarcinoma cell line are obtained from Dr. Ralf Bartenschlager (Bartenschlager, R. Innovation: Hepatitis C virus replicons: potential role for drug development. Nat. Rev. Drug Discov. 2002, 1, 911-916. Krieger, N.; Lohmann, V.; Bartenschlager, R. Enhancement of hepatitis C virus RNA replication by cell culture-adaptive mutations. J. Virol. 2001, 75, 4614-4624. Lohmann, V.; Korner, F.; Koch, J.-O.; Herian, U.; Theilmann, L.; Bartenschlager, R. Replication of subgenomic hepatitis C virus RNAs in a hepatoma cell line. Science. 1999, 285, 110-113.) (Reblikon GmbH, Gau-Odernheim, Germany). […]
Huh-7, ET replicon cells are seeded in white opaque 96-well cell culture microtiter plates at sub-confluent density (3×10^3 cells per well) in a volume of 100 μL media. […] Plates are read for Luciferase counts using a luminometer (Wallac MicroBeta Trilux, Perkin Elmer™, MA, USA). […]

[6] = PK parameters of VX-222 in Study 101 Part C and Study 102 Part A; format: in vivo, human; settings: 250 to 750 mg b.i.d.
Method: In Part C of Study 101, VX-222 was administered as multiple doses of 750 mg b.i.d. to treatment-naïve subjects with chronic hepatitis C for 3 days. In addition, in Part A of Study 102, VX-222 was administered as multiple doses ranging from 250 mg to 750 mg BID and 1500 mg once a day to treatment-naïve subjects with chronic hepatitis C for 3 days. The PK parameters of VX-222 assessed in Study 101 (final data) and Study 102 (preliminary data) are outlined below: […]

[7] = 500 mg b.i.d., Day 3, HCV infected subjects

**Q.** For `CC1CCC(C(=O)N(c2cc(C#CC(C)(C)C)sc2C(=O)O)C2CCC(O)CC2)CC1` (stereo not drawn) [VX-222, 5-(3,3-Dimethylbut-1-ynyl)-3-[(trans-4-hydroxycyclohexyl)-(4-trans methylcyclohexanecarbonyl)amino]thiophene-2-carboxylic acid], which “Viral Load Reduction at Day 4, Mean” value ([1]; 250 mg b.i.d. for 3 days) is on record?
**A.** −3.1

**Q.** And the “Viral Load Reduction at Day 4, Mean” value ([1]; 500 mg b.i.d. for 3 days)?
**A.** −3.4

**Q.** What about the “Viral Load Reduction at Day 4, Mean” value ([1]; 750 mg b.i.d. for 3 days) of the same molecule?
**A.** −3.2

**Q.** And the “AUC0-12 hr Geometric Mean” value [2, 7]?
**A.** 29848 ng·h/mL

**Q.** And the “tmax Median” value [2, 7]?
**A.** 2.5 h

**Q.** And the “most frequently reported adverse events (at least two patients per dose group)” value ([2]; blinded, pooled data for placebo or VX-222)?
**A.** diarrhea, headache, nausea, asthenia and fever

**Q.** What about the tolerability ([2]; blinded, pooled data for placebo or VX-222, four dose groups) of the same molecule?
**A.** well-tolerated across all four dose groups

**Q.** What about the viral breakthrough rate ([3]; DUAL treatment arms (VX-222 with telaprevir alone), 2-sided 90% confidence interval) of the same molecule?
**A.** > 25%

**Q.** And the “patients eligible (undetectable HCV RNA at Weeks 2 and 8) to stop treatment after 12 weeks” value ([3]; higher VX-222 dose in the QUAD regimen (with telaprevir, peginterferon/ribavirin))?
**A.** 50%

**Q.** And the “severe or SAEs” value [4]?
**A.** no reported severe or SAEs

**Q.** And the “synergy class with VX-950 (MacSynergy)” value [5]?
**A.** Moderated synergy (50 uM^2%-100 uM^2%: Moderated synergy)

**Q.** And the “volume of synergy with VX-950 (MacSynergy)” value ([5]; listed as 1)?
**A.** 90 uM^2% and 86 uM^2%

**Q.** And the “dose proportionality of exposures” value [6]?
**A.** increased in an approximately dose proportional manner
